Here are results for 67 compounds from patent US12667087B2, “Methods of treatment with aminolevulinic acid synthase 2 (ALAS2) modulators” (Agios Pharmaceuticals, Inc., priority 2019, dated 2026).

One experiment deals with T1, wild type ALAS2 (Homo sapiens, UniProt P22557).
T1 construct: MBP (TEV-cleavable) (C, cleaved yes); made in house; host or cells: E. coli
T1 sequence (P22557 79-587): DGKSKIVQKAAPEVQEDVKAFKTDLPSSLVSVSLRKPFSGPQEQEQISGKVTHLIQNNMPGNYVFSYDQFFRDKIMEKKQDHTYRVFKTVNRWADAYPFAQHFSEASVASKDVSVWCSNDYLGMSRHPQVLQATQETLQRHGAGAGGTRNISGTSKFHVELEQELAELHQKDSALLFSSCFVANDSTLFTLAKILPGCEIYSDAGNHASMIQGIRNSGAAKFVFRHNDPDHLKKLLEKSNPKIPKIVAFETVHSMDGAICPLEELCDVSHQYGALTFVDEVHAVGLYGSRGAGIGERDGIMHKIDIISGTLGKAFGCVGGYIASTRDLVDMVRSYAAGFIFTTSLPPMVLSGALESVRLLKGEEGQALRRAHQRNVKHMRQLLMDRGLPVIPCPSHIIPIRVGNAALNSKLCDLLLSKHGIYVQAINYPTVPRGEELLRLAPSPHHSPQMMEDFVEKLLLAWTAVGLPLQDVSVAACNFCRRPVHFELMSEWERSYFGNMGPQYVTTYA
The experiment is described as follows: General IC50 assay, version 1 (5 ug/mL ALAS2), ALA by mass spectrometry. As to conditions: version 1 assay: 5 ug/mL ALAS2, 0 uM PLP, 1 h reaction. In kind it is biochemical. The method, then:
(§1) The exemplified compounds in Table I were tested in vitro against the wild type ALAS2. As described in Example 38, two concentrations of ALAS2 were used: 5 ug/mL ALAS2 (for the version I assay) and 2 ug/mL (for the version 2 assay). “A” refers to an IC50 less than 10.0 μM; “B” refers to an IC50 from 10.0 μM to 50.0 μM; and “C” refers to an AC50 greater than 50.0 μM.
(§2) ALAS2 sequence (see FIG. 8) (residues 79-587) was expressed in E. coli as a TEV cleavable C-terminally MBP tagged construct. Purification steps included an amylose column, followed by MBP tag cleavage and passage through a Ni-NTA column to remove cleaved MBP. ALAS2 was further purified and exchanged into storage buffer (50 mM Tris, 500 mM NaCl, 1 mM DTT, 10 μM PLP, pH 8.0) by size exclusion through a Superdex 200 column and stored at −80° C.
(§3) Preparation of stock solutions: All solutions were prepared by standard methods with the exception of glycine and succinyl CoA. A 1 M solution of glycine was prepared and the pH adjusted to 8.0 by addition of […]. A 1 mM solution of succinyl CoA was prepared in 20 mM phosphoric acid, pH 2.0 to ensure its stability to hydrolysis.
(§4) Routine compound testing for IC50 measurements: Assays were carried out in 96-well V-bottom polypropylene plates (Greiner-Bio cat. no. 651201) at room temperature. Test compound dilution series and DMSO blanks (1 μL) were dispensed into the 96-well plates. A solution of 1.1× assay mix was prepared to contain, in the final 1× assay conditions: 5 μg/mL ALAS2 (for the version 1 assay) or 2 ug/mL (for the version 2 assay), 20 mM sodium phosphate pH 8.0, 3.5 mM glycine, 1 mM MgCl2, 30 mM NaCl, 0.03% BSA, 1 mM EDTA. Assay mix (45 μL) was added to each well, and compound and assay mix were pre-incubated for 1 h at room temperature. Assays were then initiated by addition of 5 μL 1 mM succinyl CoA to each well to give a final concentration of 100 μM. Reactions proceeded for 1 h (version 1 assay) or 2 h (version 2 assay) at room temperature, then were quenched by addition of 200 μL acetonitrile containing 1% formic acid and 0.2 μg/mL ^13C, ^15N aminolevulinic acid (ALA) as an internal standard. The plates were centrifuged at 4° C. for 1 min at 3500 rpm, then 200 μL of supernatant was transferred to a fresh 96-well plate for detection of ALA by high throughput mass spectrometry.
(§5) Measurement of ALA concentration by high throughput mass spectrometry: ALA was monitored in positive mode on a Sciex QTRAP 6500 connected to a Shimadzu 20AD LC using the conditions outlined in the table below. Samples were transferred from the assay plate and loaded onto a ZIC HILIC Trap column (Optimize Technologies, 4 μL, 10 μM) at a flow rate of 1.2 mL/min in 99% acetonitrile, 1% ddH2O containing 0.5% formic acid to remove nonvolatile components with a 6 s desalt cycle. Analytes were eluted with 95% acetonitrile, 5% ddH2O containing 0.5% formic acid in 12 s elution cycles. Concentrations of ALA in each sample were measured by comparison to an authentic standard curve, and IC50s were determined by fitting to the log(compound) vs. response equation Y=bottom+(top−bottom)/(1+10^((log IC50-X)*HillSlope)).
Consider `CC(C)N(N)c1nnn[nH]1` [Compound 62], for which the “IC50 (uM) ALAS2 v1; 0 uM PLP” value was “No Fit”. The same measure, in the same setting: next, `CN(N)c1snnc1-c1ccccc1` [Compound 16]: “No Fit”.

The same experiment, now with this note: version 1 assay: 5 ug/mL ALAS2, 0 uM PLP, 1 h reaction; read-out: IC50 (uM) ALAS2 v1; 0 uM PLP.
`NNc1nc(C(F)(F)F)cs1` [Compound 23]: the IC50 is greater than 50 µM. Same read-out and setting: the value for `CN(N)c1nnn[nH]1` [Compound 64] was less than 10 µM; that for `NNc1ncc(C(=O)O)s1` [Compound 49] was greater than 50 µM. Consider `NNc1ccn(CC(F)F)n1` [Compound 33], for which the IC50 was in the range of 10 to 50 µM. The same measure, in the same setting: next, `NNc1nnnn1-c1ccccc1` [Compound 15]: greater than 50 µM; `NN(CCO)c1nnn[nH]1` [Compound 56]: greater than 50 µM; `COCc1cnc(NN)s1` [Compound 41]: greater than 50 µM. On the same count and under the same terms, the value for `Cc1nc(NN)sc1C(=O)O` [Compound 54] was 10 to 50 µM; that for `NNc1nnc(-c2ccccc2)s1` [Compound 27] was less than 10 µM; that for `NNc1nnc(-c2ccccc2)[nH]1` [Compound 34] was less than 10 µM. On the same count and under the same terms, next, `Cn1cnnc1NN` [Compound 58]: greater than 50 µM; `NNc1nnc(-c2ccccn2)s1` [Compound 22]: less than 10 µM; `NNc1nnn[nH]1` [Compound 67]: less than 10 µM. Turning to `CN(N)c1noc(=O)[nH]1` [Compound 45], the IC50 was less than 10 µM. Same read-out and setting: next, `NNc1ccn(CC(=O)O)n1` [Compound 35]: less than 10 µM; `NNc1cc(-c2ccccc2)[nH]n1` [Compound 9]: 10 to 50 µM; `NNc1cc(-c2ccncc2)[nH]n1` [Compound 7]: 10 to 50 µM. The same measure, in the same setting: next, `CCN(N)c1nnn[nH]1` [Compound 63]: greater than 50 µM; `Cc1cnc(NN)s1` [Compound 40]: less than 10 µM; `Cc1ccccc1-c1nnc(NN)[nH]1` [Compound 11]: less than 10 µM. On the same count and under the same terms, the value for `NNc1nc(-c2cccnc2)no1` [Compound 19] was less than 10 µM; that for `NNc1nnc[nH]1` [Compound 66] was less than 10 µM; that for `NNc1nnc(C2CCC2)[nH]1` [Compound 12] was greater than 50 µM. Regarding `NNc1nc(CO)cs1` [Compound 53], the IC50 was in the range of 10 to 50 µM.

On to `CC(C)n1ccc(NN)n1` [Compound 32], for which the IC50 is less than 10 µM. Regarding `CN(N)c1n[nH]c(=O)[nH]1` [Compound 43], the IC50 was less than 10 µM. Still for that read-out and setting: next, `NNc1nnc(C(F)(F)F)s1` [Compound 29]: less than 10 µM; `NNc1nnc(O)[nH]1` [Compound 50]: greater than 50 µM; `CCOC(=O)c1sc(NN)nc1C` [Compound 57]: 10 to 50 µM.

Consider `Cc1nc(C#N)c(NN)o1` [Compound 52], for which the IC50 was greater than 50 µM. On the same count and under the same terms, next, `NNc1nnc(C2CC2)s1` [Compound 25]: greater than 50 µM; `CCOC(=O)c1[nH]cnc1NN` [Compound 46]: less than 10 µM. On the same count and under the same terms, next, `N#Cc1ncoc1NN` [Compound 59]: greater than 50 µM; `NNc1nc(-c2ccccc2)no1` [Compound 21]: less than 10 µM. The same measure, in the same setting: the value for `NNc1ccn(-c2ccccc2)n1` [Compound 10] was 10 to 50 µM. Regarding `NNc1nnc(C(F)(F)F)[nH]1` [Compound 44], the 50% inhibitory concentration (IC50) was less than 10 µM. For `NN(c1nnn[nH]1)C1CC1` [Compound 61], the IC50 was greater than 50 µM. In the case of `CCN(N)c1noc(=O)[nH]1` [Compound 38], the IC50 is less than 10 µM.

On to `Cn1nnnc1NN` [Compound 55], for which the IC50 is greater than 50 µM. Same read-out and setting: the value for `NNc1n[nH]nc1C(F)(F)F` [Compound 39] was less than 10 µM; that for `NNc1nc(-c2ccc(F)cc2)no1` [Compound 8] was 10 to 50 µM. On the same count and under the same terms, next, `NNc1nc(-c2ccncc2)no1` [Compound 20]: less than 10 µM. The same measure, in the same setting: next, `CCCN(N)c1nnn[nH]1` [Compound 60]: greater than 50 µM. As to `NNc1nc(-c2ccco2)cs1` [Compound 18], the IC50 was greater than 50 µM. On the same count and under the same terms, the value for `NNc1nnco1` [Compound 47] was greater than 50 µM; that for `CCCc1nnc(NN)[nH]1` [Compound 13] was 10 to 50 µM. Same read-out and setting: next, `NNc1cc(C(F)(F)F)n[nH]1` [Compound 28]: 10 to 50 µM.

For `CN(N)c1nnc(C(F)(F)F)[nH]1` [Compound 36], the IC50 is less than 10 µM. The same measure, in the same setting: the value for `COc1ccc(-c2nnc(NN)s2)cc1` [Compound 24] was 10 to 50 µM; that for `NNc1nc(N2CCOCC2)n[nH]1` [Compound 14] was 10 to 50 µM.

Take `Cc1csc(NN)n1` [Compound 42]: the IC50 was greater than 50 µM. The same measure, in the same setting: next, `Cn1c(NN)nnc1-c1ccccc1` [Compound 30]: greater than 50 µM; `CN(N)c1n[nH]nc1C(F)(F)F` [Compound 37]: 10 to 50 µM; `COCc1cnc(N(N)C(=O)C(F)(F)F)s1` [Compound 51]: greater than 50 µM. Still for that read-out and setting: next, `NNc1ccn(CC(F)(F)F)n1` [Compound 31]: greater than 50 µM; `NNc1nc(-c2ccccc2)cs1` [Compound 26]: greater than 50 µM. Same read-out and setting: next, `N#Cc1cnc(NN)s1` [Compound 48]: 10 to 50 µM. As to `CN(N)c1nnnn1Cc1ccccc1` [Compound 65], the IC50 was greater than 50 µM. The same measure, in the same setting: next, `NNc1nc(-c2ccccn2)no1` [Compound 6]: 10 to 50 µM. On the same count and under the same terms, the value for `NNc1nc(-c2ccc(N)cc2)cs1` [Compound 17] was greater than 50 µM.

Another experiment deals with T1, wild type ALAS2. As to the kind of experiment: General IC50 assay, version 2 (2 ug/mL ALAS2), ALA by mass spectrometry. Particulars: version 2 assay: 2 ug/mL ALAS2, 0 uM PLP, 2 h reaction, read-out: IC50 (uM) ALAS2 v2. In kind it is biochemical. The method, then:
as §1, §2, §3, §4, §5
In the case of `NNc1nc(-c2cccc(C(F)(F)F)c2)no1` [Compound 3], the IC50 is greater than 50 µM. On the same count and under the same terms, the value for `NNc1nc(-c2ccc3ccccc3c2)no1` [Compound 2] was less than 10 µM. Same read-out and setting: the value for `NNc1nc(-c2ccc(C(F)(F)F)cc2)no1` [Compound 4] was 10 to 50 µM. The same measure, in the same setting: next, `COc1ccc(-c2noc(NN)n2)cc1` [Compound 5]: 10 to 50 µM; `NNc1nc(-c2ccnc3ccccc23)no1` [Compound 1]: less than 10 µM.
